test system: Key Broadleaf Weed and Crop Species; assay: Post-Emergent Test II (Table 5); assay type: in vivo; settings: Abutilon theophrasti, post-emergence, 336 h, ABUTH: velvetleaf (Abutilon theophrasti), application rate 70 (kg ai/ha; footnote: g ai/ha), read-out: Visual Growth Reduction (%) 14 Days After Application ABUTH
Summary of the method: (§1)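 Visual injury ratings (0 = no injury, 100 = complete kill) taken 14 days after treatment, relative to untreated controls. Compounds, in an acetone/DMSO aqueous carrier with crop oil and surfactant, were applied by track sprayer at 187 L/ha, in a twofold dilution series from the top rate, to plants at the first to second true-leaf stage.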

SMILES | pest or weed control at 70 g/ha [%]
Cc1ccc(-c2nc(C(=O)O)c(Cl)c(N)c2F)cn1 [Compound 85] | 0 to 29

same assay, conditions: Abutilon theophrasti, post-emergence, 336 h, ABUTH: velvetleaf (Abutilon theophrasti), application rate 140 (kg ai/ha; footnote: g ai/ha), read-out: Visual Growth Reduction (%) 14 Days After Application ABUTH

SMILES | pest or weed control at 140 g/ha [%]
Cc1ccc(-c2nc(C(=O)O)c(Cl)c(N)c2F)cn1 [Compound 85] | 0 to 29

same assay, conditions: Amaranthus retroflexus, post-emergence, 336 h, AMARE: redroot pigweed (Amaranthus retroflexus), application rate 70 (kg ai/ha; footnote: g ai/ha), read-out: Visual Growth Reduction (%) 14 Days After Application AMARE

SMILES | pest or weed control at 70 g/ha [%]
Cc1ccc(-c2nc(C(=O)O)c(Cl)c(N)c2F)cn1 [Compound 85] | 95 to 100

same assay, conditions: Amaranthus retroflexus, post-emergence, 336 h, AMARE: redroot pigweed (Amaranthus retroflexus), application rate 140 (kg ai/ha; footnote: g ai/ha), read-out: Visual Growth Reduction (%) 14 Days After Application AMARE

SMILES | pest or weed control at 140 g/ha [%]
Cc1ccc(-c2nc(C(=O)O)c(Cl)c(N)c2F)cn1 [Compound 85] | 95 to 100

same assay, conditions: Brassica napus, post-emergence, 336 h, BRSSS: oilseed rape, canola (Brassica napus), application rate 70 (kg ai/ha; footnote: g ai/ha), read-out: Visual Growth Reduction (%) 14 Days After Application BRSSS

SMILES | pest or weed control at 70 g/ha [%]
Cc1ccc(-c2nc(C(=O)O)c(Cl)c(N)c2F)cn1 [Compound 85] | 60 to 74

same assay, conditions: Brassica napus, post-emergence, 336 h, BRSSS: oilseed rape, canola (Brassica napus), application rate 140 (kg ai/ha; footnote: g ai/ha), read-out: Visual Growth Reduction (%) 14 Days After Application BRSSS

SMILES | pest or weed control at 140 g/ha [%]
Cc1ccc(-c2nc(C(=O)O)c(Cl)c(N)c2F)cn1 [Compound 85] | 75 to 84

same assay, conditions: Chenopodium album, post-emergence, 336 h, CHEAL: lambsquarters (Chenopodium album), application rate 70 (kg ai/ha; footnote: g ai/ha), read-out: Visual Growth Reduction (%) 14 Days After Application CHEAL

SMILES | pest or weed control at 70 g/ha [%]
Cc1ccc(-c2nc(C(=O)O)c(Cl)c(N)c2F)cn1 [Compound 85] | 0 to 29

same assay, conditions: Chenopodium album, post-emergence, 336 h, CHEAL: lambsquarters (Chenopodium album), application rate 140 (kg ai/ha; footnote: g ai/ha), read-out: Visual Growth Reduction (%) 14 Days After Application CHEAL

SMILES | pest or weed control at 140 g/ha [%]
Cc1ccc(-c2nc(C(=O)O)c(Cl)c(N)c2F)cn1 [Compound 85] | 45 to 59

same assay, conditions: Euphorbia heterophylla, post-emergence, 336 h, EPHHL: wild poinsettia (Euphorbia heterophylla), application rate 70 (kg ai/ha; footnote: g ai/ha), read-out: Visual Growth Reduction (%) 14 Days After Application EPHHL

SMILES | pest or weed control at 70 g/ha [%]
Cc1ccc(-c2nc(C(=O)O)c(Cl)c(N)c2F)cn1 [Compound 85] | 0 to 29

same assay, conditions: Euphorbia heterophylla, post-emergence, 336 h, EPHHL: wild poinsettia (Euphorbia heterophylla), application rate 140 (kg ai/ha; footnote: g ai/ha), read-out: Visual Growth Reduction (%) 14 Days After Application EPHHL

SMILES | pest or weed control at 140 g/ha [%]
Cc1ccc(-c2nc(C(=O)O)c(Cl)c(N)c2F)cn1 [Compound 85] | 0 to 29

same assay, conditions: Helianthus annuus, post-emergence, 336 h, HELAN: sunflower (Helianthus annuus), application rate 70 (kg ai/ha; footnote: g ai/ha), read-out: Visual Growth Reduction (%) 14 Days After Application HELAN

SMILES | pest or weed control at 70 g/ha [%]
Cc1ccc(-c2nc(C(=O)O)c(Cl)c(N)c2F)cn1 [Compound 85] | 30 to 44

same assay, conditions: Helianthus annuus, post-emergence, 336 h, HELAN: sunflower (Helianthus annuus), application rate 140 (kg ai/ha; footnote: g ai/ha), read-out: Visual Growth Reduction (%) 14 Days After Application HELAN

SMILES | pest or weed control at 140 g/ha [%]
Cc1ccc(-c2nc(C(=O)O)c(Cl)c(N)c2F)cn1 [Compound 85] | 45 to 59

same assay, conditions: Viola tricolor, post-emergence, 336 h, VIOTR: wild pansy (Viola tricolor), application rate 70 (kg ai/ha; footnote: g ai/ha), read-out: Visual Growth Reduction (%) 14 Days After Application VIOTR

SMILES | pest or weed control at 70 g/ha [%]
Cc1ccc(-c2nc(C(=O)O)c(Cl)c(N)c2F)cn1 [Compound 85] | 0 to 29

same assay, conditions: Viola tricolor, post-emergence, 336 h, VIOTR: wild pansy (Viola tricolor), application rate 140 (kg ai/ha; footnote: g ai/ha), read-out: Visual Growth Reduction (%) 14 Days After Application VIOTR

SMILES | pest or weed control at 140 g/ha [%]
Cc1ccc(-c2nc(C(=O)O)c(Cl)c(N)c2F)cn1 [Compound 85] | 0 to 29

test system: Key Grass and Sedge Weeds as well as Grass Crops; assay: Post-Emergent Test II (Table 6); assay type: in vivo; settings: post-emergence, 336 h, CYPSS, 70 g ai/ha, 14 days after application, read-out: Visual Growth Reduction (%) 14 Days After Application CYPSS
Summary of the method: as §1

SMILES | pest or weed control at 70 g/ha [%]
Cc1ccc(-c2nc(C(=O)O)c(Cl)c(N)c2F)cn1 [Compound 85] | 0 to 29

same assay, conditions: post-emergence, 336 h, CYPSS, 140 g ai/ha, 14 days after application, read-out: Visual Growth Reduction (%) 14 Days After Application CYPSS

SMILES | pest or weed control at 140 g/ha [%]
Cc1ccc(-c2nc(C(=O)O)c(Cl)c(N)c2F)cn1 [Compound 85] | 0 to 29

same assay, conditions: post-emergence, 336 h, DIGSA: crabgrass (Digitaria sanguinalis), 70 g ai/ha, 14 days after application, read-out: Visual Growth Reduction (%) 14 Days After Application DIGSA

SMILES | pest or weed control at 70 g/ha [%]
Cc1ccc(-c2nc(C(=O)O)c(Cl)c(N)c2F)cn1 [Compound 85] | 0 to 29

same assay, conditions: post-emergence, 336 h, DIGSA: crabgrass (Digitaria sanguinalis), 140 g ai/ha, 14 days after application, read-out: Visual Growth Reduction (%) 14 Days After Application DIGSA

SMILES | pest or weed control at 140 g/ha [%]
Cc1ccc(-c2nc(C(=O)O)c(Cl)c(N)c2F)cn1 [Compound 85] | 0 to 29

same assay, conditions: post-emergence, 336 h, ECHSS, 70 g ai/ha, 14 days after application, read-out: Visual Growth Reduction (%) 14 Days After Application ECHSS

SMILES | pest or weed control at 70 g/ha [%]
Cc1ccc(-c2nc(C(=O)O)c(Cl)c(N)c2F)cn1 [Compound 85] | 45 to 59

same assay, conditions: post-emergence, 336 h, ORYSS (crop), 70 g ai/ha, 14 days after application, read-out: Visual Growth Reduction (%) 14 Days After Application ORYSS

SMILES | pest or weed control at 70 g/ha [%]
Cc1ccc(-c2nc(C(=O)O)c(Cl)c(N)c2F)cn1 [Compound 85] | 0 to 29

same assay, conditions: post-emergence, 336 h, ORYSS (crop), 140 g ai/ha, 14 days after application, read-out: Visual Growth Reduction (%) 14 Days After Application ORYSS

SMILES | pest or weed control at 140 g/ha [%]
Cc1ccc(-c2nc(C(=O)O)c(Cl)c(N)c2F)cn1 [Compound 85] | 0 to 29

same assay, conditions: post-emergence, 336 h, SETFA: giant foxtail (Setaria faberi), 70 g ai/ha, 14 days after application, read-out: Visual Growth Reduction (%) 14 Days After Application SETFA

SMILES | pest or weed control at 70 g/ha [%]
Cc1ccc(-c2nc(C(=O)O)c(Cl)c(N)c2F)cn1 [Compound 85] | 0 to 29

same assay, conditions: post-emergence, 336 h, SETFA: giant foxtail (Setaria faberi), 140 g ai/ha, 14 days after application, read-out: Visual Growth Reduction (%) 14 Days After Application SETFA

SMILES | pest or weed control at 140 g/ha [%]
Cc1ccc(-c2nc(C(=O)O)c(Cl)c(N)c2F)cn1 [Compound 85] | 0 to 29

same assay, conditions: post-emergence, 336 h, SORVU: grain sorghum (Sorghum vulgare), 70 g ai/ha, 14 days after application, read-out: Visual Growth Reduction (%) 14 Days After Application SORVU

SMILES | pest or weed control at 70 g/ha [%]
Cc1ccc(-c2nc(C(=O)O)c(Cl)c(N)c2F)cn1 [Compound 85] | 0 to 29

same assay, conditions: post-emergence, 336 h, SORVU: grain sorghum (Sorghum vulgare), 140 g ai/ha, 14 days after application, read-out: Visual Growth Reduction (%) 14 Days After Application SORVU

SMILES | pest or weed control at 140 g/ha [%]
Cc1ccc(-c2nc(C(=O)O)c(Cl)c(N)c2F)cn1 [Compound 85] | 0 to 29

same assay, conditions: post-emergence, 336 h, TRZSS (crop), 70 g ai/ha, 14 days after application, read-out: Visual Growth Reduction (%) 14 Days After Application TRZSS

SMILES | pest or weed control at 70 g/ha [%]
Cc1ccc(-c2nc(C(=O)O)c(Cl)c(N)c2F)cn1 [Compound 85] | 0 to 29

same assay, conditions: post-emergence, 336 h, TRZSS (crop), 140 g ai/ha, 14 days after application, read-out: Visual Growth Reduction (%) 14 Days After Application TRZSS

SMILES | pest or weed control at 140 g/ha [%]
Cc1ccc(-c2nc(C(=O)O)c(Cl)c(N)c2F)cn1 [Compound 85] | 0 to 29

same assay, conditions: post-emergence, 336 h, ZEAMX: maize, corn (Zea mays), 70 g ai/ha, 14 days after application, read-out: Visual Growth Reduction (%) 14 Days After Application ZEAMX

SMILES | pest or weed control at 70 g/ha [%]
Cc1ccc(-c2nc(C(=O)O)c(Cl)c(N)c2F)cn1 [Compound 85] | 0 to 29

same assay, conditions: post-emergence, 336 h, ZEAMX: maize, corn (Zea mays), 140 g ai/ha, 14 days after application, read-out: Visual Growth Reduction (%) 14 Days After Application ZEAMX

SMILES | pest or weed control at 140 g/ha [%]
Cc1ccc(-c2nc(C(=O)O)c(Cl)c(N)c2F)cn1 [Compound 85] | 0 to 29

test system: not given; assay: not given; settings: not given

melting point [°C] | SMILES
186 to 187 | Cc1ccc(-c2nc(C(=O)O)c(Cl)c(N)c2F)cn1 [Compound 85]

Reference: patent US10765114B2, “4-amino-6-(pyridyl and 2-substitutedphenyl)-picolinates and 6-amino-2-(pyridyl and 2-substitutedphenyl)-pyrimidine-4-carboxylates and their use as herbicides” (Dow AgroSciences LLC, priority 2013, dated 2020)
